# Source: patent publication US9695155B2, “Herbicidal substituted pyrimidinyloxy benzene compounds” (E. I. DU PONT DE NEMOURS AND COMPANY, priority 2013, dated 2017)
# What was measured:
# waterhemp = test: Test C postemergence; format: in vivo, Amaranthus rudis
# Summary of the method: (§1)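 Seeds were sown in loam–sand blend and sprayed preemergence, while plants at 1- to 4-leaf stage (2–18 cm) in peat-based medium received postemergence sprays; test chemicals were formulated in a non-phytotoxic solvent with surfactant. After 13–15 days in a greenhouse, injury was rated visually against controls, 0 (no effect) to 100 (complete control).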
# pigweed [1] = test: Test A postemergence; format: in vivo, Amaranthus retroflexus
# Summary of the method: (§2)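 Injury scores run from 0, no effect, to 100, complete control, judged by eye against untreated plants roughly 10 days after treatment. Chemicals carried a surfactant in a non-phytotoxic solvent and went onto loam–sand soil preemergence or onto one- to two-leaf seedlings postemergence.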
# barnyardgrass [2] = test: Test B flooded paddy test; format: in vivo, Echinochloa crus-galli; settings: Flood, 250 g ai/ha; 0 to 100 scale where 0 is no effect and 100 is complete control
# Summary of the method: (§3)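 Plants at 2-leaf stage; pots flooded to 3 cm above soil and compound applied directly into paddy water, depth held throughout. After 13 to 15 days in greenhouse, visual rating versus controls on 0 (no effect) to 100 (complete control) scale.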
# corn = test: Test C postemergence; format: in vivo, Zea mays
# Summary of the method: as §1
# chickweed = test: Test C postemergence; format: in vivo, Stellaria media
# Summary of the method: as §1
# pigweed [3] = test: Test A preemergence; format: in vivo, Amaranthus retroflexus
# Summary of the method: as §2
# barnyardgrass [4] = test: Test C postemergence; format: in vivo, Echinochloa crus-galli
# Summary of the method: as §1
# sedge, umbrella = test: Test B flooded paddy test; format: in vivo, Cyperus difformis; settings: Flood, 250 g ai/ha; 0 to 100 scale where 0 is no effect and 100 is complete control
# Summary of the method: as §3
# oilseed rape = test: Test C postemergence; format: in vivo, Brassica napus
# Summary of the method: as §1
# Heteranthera limosa = test: Test B flooded paddy test; format: in vivo; settings: Flood, 250 g ai/ha; 0 to 100 scale where 0 is no effect and 100 is complete control
# Summary of the method: as §3
# wheat, winter = test: Test C postemergence; format: in vivo, Triticum aestivum
# Summary of the method: as §1
# johnsongrass = test: Test C postemergence; format: in vivo, Sorghum halepense
# Summary of the method: as §1
# large (Lg) crabgrass = test: Test C postemergence; format: in vivo, Digitaria sanguinalis
# Summary of the method: as §1
# [5] = 16 g ai/ha, postemergence, 0 is no effect, 100 is complete control
# [6] = 31 g ai/ha, postemergence, visual rating, scale 0 to 100 (0 no effect, 100 complete control), 13 to 15 days
# [7] = 125 g ai/ha, postemergence, visual rating, scale 0 to 100 (0 no effect, 100 complete control)
# [8] = Postemergence, 62 g ai/ha, scale 0 to 100 (0 no effect, 100 complete control), 13 to 15 days
# [9] = 500 g ai/ha, 0 to 100 scale where 0 is no effect and 100 is complete control
smiles,measurement,setting,value
N#Cc1cnn(-c2c(Oc3ncc(F)cn3)cccc2C(F)F)c1 [Compound 240],"Plant response rating (0 to 100), Waterhemp",waterhemp; [5],10
same,Waterhemp plant response rating,waterhemp; [6],25
same,"Plant response rating, Waterhemp",waterhemp; [7],70
same,"Plant response rating, Waterhemp",waterhemp; [8],55
same,"Plant response rating, Pigweed","pigweed [1]; 125 g ai/ha, 0 to 100 scale, 0 no effect, 100 complete control",100
same,"Plant response rating, Pigweed",pigweed [1]; [9],100
same,"Plant response rating, Barnyardgrass",barnyardgrass [2],0
same,"Plant response rating (0 to 100), Corn",corn; [5],0
same,Corn plant response rating,corn; [6],5
same,"Plant response rating, Corn",corn; [7],15
same,"Plant response rating, Corn",corn; [8],5
same,"Plant response rating (0 to 100), Chickweed",chickweed; [5],5
same,Chickweed plant response rating,chickweed; [6],5
same,"Plant response rating, Chickweed",chickweed; [7],55
same,"Plant response rating, Chickweed",chickweed; [8],55
same,Pigweed plant response rating (0 to 100 scale),pigweed [3]; 125 g ai/ha,100
same,Pigweed plant response rating,pigweed [3]; [9],100
same,"Plant response rating (0 to 100), Barnyardgrass",barnyardgrass [4]; [5],0
same,Barnyardgrass plant response rating,barnyardgrass [4]; [6],10
same,"Plant response rating, Barnyardgrass",barnyardgrass [4]; [7],20
same,"Plant response rating, Barnyardgrass","barnyardgrass [4]; Postemergence, 62 g ai/ha, scale 0 to 100 (0 no effect, 100 complete control)",10
same,"Plant response rating, Sedge, Umbrella","sedge, umbrella",30
same,"Plant response rating (0 to 100), Oilseed Rape",oilseed rape; [5],30
same,Oilseed Rape plant response rating,oilseed rape; [6],35
same,"Plant response rating, Oilseed Rape",oilseed rape; [7],60
same,"Plant response rating, Oilseed Rape",oilseed rape; [8],55
same,"Plant response rating, Ducksalad",Heteranthera limosa,50
same,"Plant response rating (0 to 100), Wheat","wheat, winter; [5]",0
same,Wheat plant response rating,"wheat, winter; [6]",0
same,"Plant response rating, Wheat","wheat, winter; [7]",5
same,"Plant response rating, Wheat","wheat, winter; [8]",5
same,"Plant response rating (0 to 100), Johnsongrass",johnsongrass; [5],10
same,Johnsongrass plant response rating,johnsongrass; [6],5
same,"Plant response rating, Johnsongrass",johnsongrass; [7],10
same,"Plant response rating, Johnsongrass",johnsongrass; [8],5
same,"Plant response rating (0 to 100), Crabgrass, Large",large (Lg) crabgrass; [5],10
same,"Crabgrass, Large plant response rating",large (Lg) crabgrass; [6],5
same,"Plant response rating, Crabgrass, Large",large (Lg) crabgrass; [7],20
same,"Plant response rating, Crabgrass, Large",large (Lg) crabgrass; [8],5
